This note sets out measurements from PubChem BioAssay AID179 (DTP/NCI, 2004).

Active and inactive are the calls of the source.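 The calls were made as follows: active = compounds giving half or more protection of infected cells from virus-caused growth loss, again on retest; inactive = the rest.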 Where a SMILES comes first, the peptide text is derived from it. [ ]: non-standard residue; d: D form. Phe(4-Cl) = N[CH](Cc1ccc(Cl)cc1)C(=O)O; 3Pal = N[CH](Cc1cccnc1)C(=O)O

This assay concerns CEM cells HIV-1 protection, formazan growth assay. As to the kind of experiment: NCI AIDS Antiviral Assay. Particulars: for IC50: measured here: growth of uninfected CEM cells. The procedure, abridged: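 Human CEM cells, uninfected and HIV-1-infected, received five drug concentrations, and growth was read by soluble formazan assay. Compounds giving at least 50% protection were retested; reproducible 100% protection defined confirmed active.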

The EC50 is the midpoint of the concentration-response curve. What is called IC50 is the concentration that inhibits the measured activity by half. Higher therefore signals weaker potency.

In the case of `CC(CN(C)C)OC(=O)c1cc2ccccc2n1-c1ccccc1` (stereo not given), the EC50 is above 200 µM and the IC50 was determined as 91.2 µM.

`CCN(CC)c1ccc2cc(C(=O)NCc3ccccc3)c(=N)oc2c1`: the EC50 is above 200 µM and the IC50 amounted to 11 µM.

Turning to `CCCCCCn1c(SCC)c2ccccc2c1-c1nc(F)nc(F)n1`, the EC50 is above 2.75 µM and the IC50 was above 2.75 µM.

As to `CC(C)n1c2c(c3ccccc3c1=O)C(=O)c1ccccc1-2`, the EC50 was above 64.6 µM and the IC50 is above 64.6 µM.

For the molecule `NNc1nnc(-c2ccccc2)nc1Cc1ccccc1`, the EC50 was above 25.7 µM and the IC50 is 13.8 µM.

`O=C1Nc2ccccc2S/C1=C/c1ccccc1`: the EC50 was above 20.4 µM and the IC50 was above 20.4 µM.

For the molecule `O=C(Cc1ccccc1)NN1C(=O)C(Cl)C1c1cc(Br)cc(Br)c1O` (stereo not given), the EC50 is above 20.4 µM and the IC50 came to 11.5 µM.

For `Cc1cc(N=Nc2ccc(Sc3ccc(N=Nc4ccc(O)c(C(=O)O)c4)cc3)cc2)c(N)c(N=Nc2ccc(C(=O)O)cc2)c1N`, the EC50 was above 200 µM and the IC50 was found to be 27.5 µM.

Take `O=C(CC(O)(C(F)(F)F)C(F)(F)F)c1cccs1`: the EC50 is above 200 µM and the IC50 is above 200 µM.

With `O=C1NC(=O)C(F)(n2cc(F)c(=O)[nH]c2=O)C(O)N1` (stereo not given), the EC50 is above 200 µM and the IC50 came out at 55 µM.

On to `N#CC(c1ccccn1)c1nc2ccccc2[nH]1` (stereo not given), for which the EC50 is above 8.51 µM and the IC50 is above 8.51 µM.

On to `O=Cc1ccc(-c2ccc(-c3ccc(CO)s3)o2)s1`, for which the result was inactive.

In the case of `CCCCCCCCCCCCCCCCOC[C@@H](COC(c1ccccc1)(c1ccccc1)c1ccccc1)O[P+](=S)OC` (stereo not given in full), the EC50 is above 200 µM and the IC50 is 22.4 µM.

Regarding `COc1cc2c(cc1OC)C1Cc3cc(OC)c(OC)cc3C(C2)O1`, the EC50 is above 200 µM and the IC50 was 105 µM.

For `O=C(OCC1CC(C2(O)CCCCC2)C(=O)O1)c1ccccc1` (stereo not given), the EC50 is above 200 µM and the 50% inhibitory concentration (IC50) is above 200 µM.

With `O=c1n(CC2CO2)c2ccccc2n1CC1CS1` (stereo not given), the EC50 is above 692 µM and the IC50 was determined as 12.9 µM.

For `O=C1C(NS(=O)(=O)c2ccccc2)=C(n2cnc3ccccc32)C(=O)c2ccccc21`, the EC50 was above 200 µM and the IC50 is 145 µM.

`O=c1ccc2nc3cc(Br)ccc3sc-2c1`: the EC50 is above 24.5 µM and the IC50 is above 24.5 µM.

For `COc1ccc(N(CN2C(=O)CCC2OC)C(C)=O)cc1` (stereo not given), the result was inactive.

For the molecule `COc1cccc(/C(CC(O)(C(F)(F)F)C(F)(F)F)=N\N(C)C)c1`, the EC50 was above 200 µM and the IC50 is above 200 µM.

As to `CN(C)CC1CCCCCCCCCCCCC(CN(C)C)C1=O` (stereo not given), the EC50 is above 21.4 µM and the IC50 was above 21.4 µM.

As for `COC(=N)C(C)C`, the EC50 is above 1820 µM and the IC50 was above 1820 µM.

Regarding `C(=Nc1cnc2ccccc2c1)c1ccnc2ccccc12`, the EC50 is above 66.1 µM and the IC50 stood at 3.55 µM.

`Oc1ccc(Cc2cc(Cc3ccc(O)cc3)cc(Cc3ccc(O)cc3)c2)cc1` returned an EC50 of 93.3 µM and an IC50 above 100 µM.

For the molecule `N#Cc1ccccc1NC(=O)C(=O)C(C(=O)c1ccncc1)C1OC(=O)c2ccccc21` (stereo not given), the EC50 is above 589 µM and the IC50 was above 589 µM.

Regarding `COC(=O)[C@]12CSC[C@H]1C[C@H](c1cccc3ccccc13)N2`, the EC50 is above 200 µM and the IC50 is above 200 µM.

On to `Cc1noc(NS(=O)(=O)c2ccc(N=c3c4ccccc4n(-c4ccccc4)c4ccccc34)cc2)c1C`, for which the outcome was inactive.

`C(=N\NC1=NCCN1)/c1ccc2ccccc2c1`: the EC50 is above 200 µM and the IC50 turned out to be 22.9 µM.

On to `COc1c2occc2c(S(=O)(=O)O)c2ccc(=O)oc12`, for which the EC50 is above 302 µM and the IC50 is above 302 µM.

For `CC1CC(=O)Nc2ccc(Cl)cc2N1C(=O)CN1CCC(CCCCN(C)C)CC1` (stereo not given), the EC50 was above 251 µM and the IC50 was determined as 129 µM.

As for `NC(=S)N=Nc1c(O)cc(Nc2ccc(Cl)cc2Cl)c2ccccc12`, the EC50 is above 138 µM and the IC50 is 97.7 µM.

Regarding `COc1ccc(NC(=O)/C(Cc2cc(=O)oc3cc(O)ccc23)=N\NC(C)(C)C)c(OC)c1`, the EC50 was above 30.2 µM and the IC50 was above 30.2 µM.

For the molecule `O=C(O)c1cc(Cl)n[nH]c1=O`, the EC50 is above 1410 µM and the IC50 was above 1410 µM.

`C#CCN(CC#C)C(=O)C(=O)c1c[nH]c2ccc(OC)cc12`: the EC50 is above 200 µM and the IC50 worked out at 40.7 µM.

Turning to `CC(C)N(C(=O)c1ccc(NCc2cc(O)ccc2O)cc1)C(C)C`, the EC50 was above 200 µM and the IC50 was 12.6 µM.

With `CC(=O)NC(Cc1ccc(Cl)cc1)C(=O)NC(Cc1ccc(Cl)cc1)C(=O)NC(Cc1cccnc1)C(=O)NC(CO)C(=O)NC(Cc1ccc(O)cc1)C(=O)NC(CCCN=C(N)N)C(=O)NC(CC(C)C)C(=O)NC(CCCN=C(N)N)C(=O)N1CCCC1C(=O)NC(C)C(=O)O` (stereo not given) (Ac-[Phe(4-Cl)][Phe(4-Cl)][3Pal]SYRLRPA-OH; configuration not given here), the EC50 was above 17 µM and the half-maximal inhibitory concentration (IC50) was above 17 µM.

Regarding `CN(NC(=O)c1ccco1)C1=NCCN1`, the EC50 is above 200 µM and the IC50 is above 200 µM.

Turning to `O=[N+]([O-])c1cccc2nc3ccccc3c(NCCC[N+]3([O-])CCCCC3)c12`, the EC50 is above 0.2 µM and the IC50 was determined as 0.126 µM.

On to `O=C1c2c(ccc3c2CCC3)CC1Cc1ccc2c(c1)CCC2` (stereo not given), for which the EC50 is above 200 µM and the IC50 amounted to 35.5 µM.

Turning to `N=Nc1c2ccccc2c2nc3c(N)[nH]nc(N)c3nc12`, the EC50 is above 45.7 µM and the IC50 came to 28.8 µM.

Consider `S=C(NC1=NCC(CN2CCN(c3ccccc3)CC2)O1)Nc1ccccc1` (stereo not given), for which the EC50 was above 200 µM and the IC50 turned out to be 45.7 µM.

Consider `CC1=C(C)CC2(CC1)C(=O)NC(=O)NC2=O`, for which the EC50 is above 832 µM and the IC50 is above 832 µM.

For the molecule `Cc1cn(CCOCCOC(=O)NC(CCCN=C(N)N)C(=O)O)c(=O)[nH]c1=O` (stereo not given), the EC50 is above 200 µM and the IC50 is above 200 µM.

In the case of `CC(=O)/C(=C/c1ccc(N(C)C)cc1)c1ccccc1`, the EC50 is above 19.5 µM and the IC50 was above 19.5 µM.

Take `CC1(C)COC(c2cccnc2/C=N/O)=N1`: the EC50 is above 1150 µM and the IC50 was above 200 µM.

Take `COC(=O)N1CC[C@]2(CC=C(C)C)c3ccccc3N(S(=O)(=O)c3ccccc3)[C@H]12`: the EC50 was above 100 µM and the IC50 was 24.5 µM.

Consider `CSc1nc2nc(C(O)C(O)C(O)CO)cnc2c(=O)[nH]1` (stereo not given), for which the outcome was inactive.

In the case of `CCOC(=O)NC(=O)c1cn(C(CC)COC(=O)NCCCCCCNC(=O)OCC(CC)n2cc(C(=O)NC(=O)OCC)c(=O)[nH]c2=O)c(=O)[nH]c1=O` (stereo not given), the outcome was inactive.

Consider `CCOC(=O)c1ccc(N=[N+]([O-])c2ccc(C(=O)OCC)cc2)cc1`, for which the EC50 was above 100 µM and the IC50 is above 100 µM.

In the case of `C[C@@H]([C@H]1CC[C@@]2(C)[C@@H]3CC[C@@H]4C(=CC3=CC[C@]12C)CC[C@H](N(C)C)C4(C)C)N(C)C`, the EC50 is above 200 µM and the half-maximal inhibitory concentration (IC50) is above 200 µM.
